Assay results: ChEMBL document CHEMBL4680359, “1-Pyrazolyl-5,6-Disubstituted Indazole Derivatives as LRRK2 Inhibitors for Treating Parkinson's Disease” (ACS Med Chem Lett, 2021)

Target: Leucine-rich repeat serine/threonine-protein kinase 2 (Homo sapiens, UniProt Q5S007, G2019S)
Assay: Inhibition of GST-tagged truncated human LRRK2 G2019S mutant using fluorescein labeled LRRKtide peptide as substrate preincubated for 15 mins followed by substrate addition measured after 90 mins in presence of ATP at Km concentration by TR-FRET Lanthascreen assay

Leucine-rich repeat serine/threonine-protein kinase 2, sequence (Q5S007 whole entry G2019S, the tested form may be a part): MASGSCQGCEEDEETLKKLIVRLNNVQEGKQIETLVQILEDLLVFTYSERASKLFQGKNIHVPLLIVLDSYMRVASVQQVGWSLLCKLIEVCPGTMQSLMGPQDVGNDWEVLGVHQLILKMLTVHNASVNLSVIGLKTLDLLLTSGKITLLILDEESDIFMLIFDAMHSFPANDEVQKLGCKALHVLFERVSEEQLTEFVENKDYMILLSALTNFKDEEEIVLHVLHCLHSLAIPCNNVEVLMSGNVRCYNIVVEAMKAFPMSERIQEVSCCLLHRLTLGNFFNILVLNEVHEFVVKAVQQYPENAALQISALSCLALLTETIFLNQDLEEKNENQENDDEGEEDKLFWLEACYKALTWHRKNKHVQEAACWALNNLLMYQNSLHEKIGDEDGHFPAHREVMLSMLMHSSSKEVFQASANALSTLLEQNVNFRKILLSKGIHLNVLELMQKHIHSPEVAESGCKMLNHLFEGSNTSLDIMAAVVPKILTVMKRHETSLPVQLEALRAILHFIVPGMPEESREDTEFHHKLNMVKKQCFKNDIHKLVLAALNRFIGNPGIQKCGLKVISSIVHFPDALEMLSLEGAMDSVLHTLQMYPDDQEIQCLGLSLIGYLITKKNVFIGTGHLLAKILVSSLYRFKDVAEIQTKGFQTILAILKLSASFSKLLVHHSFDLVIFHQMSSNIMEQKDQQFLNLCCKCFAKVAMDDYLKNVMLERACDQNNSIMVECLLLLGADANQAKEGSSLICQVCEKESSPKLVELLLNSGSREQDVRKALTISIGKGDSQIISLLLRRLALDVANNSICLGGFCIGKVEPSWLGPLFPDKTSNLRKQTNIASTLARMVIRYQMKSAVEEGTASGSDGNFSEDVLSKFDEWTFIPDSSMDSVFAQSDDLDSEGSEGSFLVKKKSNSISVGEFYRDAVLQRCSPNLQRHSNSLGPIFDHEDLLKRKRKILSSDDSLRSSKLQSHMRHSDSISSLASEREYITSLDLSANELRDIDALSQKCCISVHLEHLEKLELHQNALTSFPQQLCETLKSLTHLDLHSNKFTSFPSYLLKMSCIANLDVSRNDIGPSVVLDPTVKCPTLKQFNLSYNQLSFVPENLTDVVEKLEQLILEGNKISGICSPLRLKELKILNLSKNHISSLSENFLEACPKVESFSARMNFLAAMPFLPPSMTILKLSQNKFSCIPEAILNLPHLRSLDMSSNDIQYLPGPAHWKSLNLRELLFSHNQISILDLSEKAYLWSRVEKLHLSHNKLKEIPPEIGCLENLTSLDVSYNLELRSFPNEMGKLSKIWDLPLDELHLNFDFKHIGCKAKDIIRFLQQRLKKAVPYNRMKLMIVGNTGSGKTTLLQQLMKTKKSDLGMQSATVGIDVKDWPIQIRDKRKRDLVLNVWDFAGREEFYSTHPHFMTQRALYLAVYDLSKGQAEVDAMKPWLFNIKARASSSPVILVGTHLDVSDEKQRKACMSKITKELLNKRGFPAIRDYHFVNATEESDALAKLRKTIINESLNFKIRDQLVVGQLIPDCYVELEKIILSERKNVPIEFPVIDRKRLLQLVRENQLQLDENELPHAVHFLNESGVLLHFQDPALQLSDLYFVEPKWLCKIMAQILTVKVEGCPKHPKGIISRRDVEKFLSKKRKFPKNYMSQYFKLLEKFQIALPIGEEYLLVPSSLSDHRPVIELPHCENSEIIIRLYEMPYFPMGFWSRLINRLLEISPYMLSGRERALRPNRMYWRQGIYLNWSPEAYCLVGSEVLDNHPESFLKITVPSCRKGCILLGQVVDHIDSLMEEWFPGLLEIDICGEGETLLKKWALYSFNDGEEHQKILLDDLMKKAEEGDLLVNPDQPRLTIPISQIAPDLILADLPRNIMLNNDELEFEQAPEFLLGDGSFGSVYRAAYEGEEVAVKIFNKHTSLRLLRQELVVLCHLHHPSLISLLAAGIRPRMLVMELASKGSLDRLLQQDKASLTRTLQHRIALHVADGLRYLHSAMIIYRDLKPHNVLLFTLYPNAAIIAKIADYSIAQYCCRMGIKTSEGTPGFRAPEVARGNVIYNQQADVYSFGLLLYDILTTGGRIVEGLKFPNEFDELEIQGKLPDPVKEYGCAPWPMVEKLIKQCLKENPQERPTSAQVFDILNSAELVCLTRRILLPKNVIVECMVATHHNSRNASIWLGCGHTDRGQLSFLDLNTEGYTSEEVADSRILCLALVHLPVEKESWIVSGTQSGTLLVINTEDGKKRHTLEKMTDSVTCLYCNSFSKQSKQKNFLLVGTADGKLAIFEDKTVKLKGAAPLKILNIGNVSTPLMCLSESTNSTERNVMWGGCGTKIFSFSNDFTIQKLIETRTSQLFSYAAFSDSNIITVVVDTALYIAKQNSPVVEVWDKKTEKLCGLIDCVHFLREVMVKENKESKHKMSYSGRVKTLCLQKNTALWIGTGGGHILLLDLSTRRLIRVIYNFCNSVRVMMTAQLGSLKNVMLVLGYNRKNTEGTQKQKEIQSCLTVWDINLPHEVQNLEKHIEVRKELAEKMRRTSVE

Q: For `OC1(c2cncs2)CCN(c2cc3c(cnn3-c3cnn(C4CC4)c3)cc2Cl)CC1`, which IC50 is on record?
A: Its IC50 is 97.5 nM.

Q: How did the IC50 turn out when `C[C@@]1(N2CCN(c3cc4c(cnn4-c4cnn(C56CC(C5)C6)c4)cc3Cl)CC2)CC[C@H]1O` was run?
A: The IC50 was 154 nM.

Q: Which IC50 does the source give for `COCC12CC(n3cc(-n4ncc5cc(Cl)c(N6CCN([C@]7(C)COC[C@@H]7O)CC6)cc54)cn3)(C1)C2` here?
A: Its IC50 is less than 80.4 nM.

Q: Which IC50 does the source give for `Cc1cc2cnn(-c3cnn(C45CC(C4)C5)c3)c2cc1N1CCN([C@@H]2COC[C@@H]2O)CC1` here?
A: Its IC50 is 259 nM.

Q: For `CO[C@H]1COC[C@H]1N1CCN(c2cc3c(cnn3-c3cnn(C45CC(C4)C5)c3)cc2Cl)CC1`, which IC50 is on record?
A: Its IC50 is 104 nM.

Q: `[2H]C([2H])([2H])OCC12CC(n3cc(-n4ncc5cc(Cl)c(N6CCN([C@]7(C)COC[C@@H]7O)CC6)cc54)cn3)(C1)C2` was tested. Which IC50 did it give?
A: The IC50 was 157 nM.
